Measured values published in patent US8246985B2, “Pharmaceutical composition comprising lipase inhibitor and lipophilic oil absorbent and oral formulation prepared therefrom” (Amorepacific Corporation, priority 2006, dated 2012).

Experiment: Oil adsorption test for selection of lipophilic oil absorbent
Format: physicochemical
Settings: for Amount of remained oil: 1.5 g substance (0.1 g hydroxypropyl methyl cellulose and polyethylene oxide, 0.5 g light anhydrous silicic acid), 5 g soybean oil, 15 g purified water, mixed 2 min, centrifuged 3,000 g 5 min, weight of supernatant oil layer; for Adsorption (%): ratio of oil adsorbed (dispersants: oil within dispersing layer) to total oil amount (5 g)
Procedure: In order to select a lipophilic oil absorbent that is capable of adsorbing unabsorbed free oil by the action of a lipase inhibitor, various substances known as a dispersant or adsorbent were subjected to an adsorption test as follows. 1.5 g of each ingredient listed in Table 1 (excepted for 0.1 g of each of hydroxypropyl methyl cellulose and polyethylene oxide, 0.5 g of light anhydrous silicic acid), 5 g of soybean oil and 15 g of purified water were mixed in a test tube for 2 minutes and centrifuged at 3,000 g for 5 minutes. After separating the supernatant oil layer, the oil adsorption degree of each substance was determined.
In table 1, the amount of oil remained was measured from the weight of the oil layer after adsorption, and the adsorption (%) means the ratio of the amount of oil adsorbed (which is obtained by subtracting the remained oil amount from the total oil amount) to the total amount of oil. On using a dispersant, the amount of oil remained means the oil amount of a supernatant excepting oil dispersed layer, and the adsorption (%) means the ratio of the oil amount within the dispersing layer to the total oil amount (5 g).

Amount of remained oil	Adsorption (%) (sulfate)	Adsorption (%)	Compound
0.00 g	100%	–	CCCCCCCCCCCCOS(=O)(=O)[O-].[Na+] [Sodium lauryl sulfate]
2.79 g	–	2.79%	Polyoxyethylene(2) cetyl ether
0.17 g	–	1.13%	Sorbitan trioleate
